Assay results from patent publication US5728885A, “Method of preparing the enantiomers of O-dimethyltramadol” (priority 1996, dated 1998).
Counter-ions that a name gives are not always drawn. Like-named read-outs stand apart in the source and are kept apart here.

Assays:
[1] = system: phenylquinone-induced writhing; test: phenylquinone-induced writhing test on mice (analgesia); format: in vivo, male NMRI mice; conditions: Mus musculus, read-out: ED50 in the writhing test
Procedure: Testing for analgesia using the writhing test on mice
Testing for analgesic effectiveness was performed using the phenylquinone-induced writhing test on mice (modified according to I. C. Hendershot, J. Forsaith, J. Pharmacol. Exp. Ther. 125, 237-240 (1959)). […]. For each dose of substance, groups of 10 animals received, 10 minutes after the intravenous administration of the compounds to be used according to the invention, 0.3 ml per mouse of an 0.02% aqueous solution of phenylquinone (phenylbenzoquinone: manufactured by Sigma, Deisenhofen; solution prepared with the addition of 5 % ethanol and kept on a water bath at 45° C.) administered intraperitoneally. The animals were placed individually in observation cages, and the number of pain-induced stretching movements (so-called writhing reactions=straightening of the body with stretching of the rear extremities) 5-20 minutes after the administration of phenylquinone was counted by means of a push-button counter. The ED50 values were calculated with a 95% confidence limit by means of regression analysis (evaluation program supplied by Martens EDV Service, Eckental) from the dose-dependent decrease in the writhing reactions, by comparison with control groups which were tested in parallel and which were treated with phenylquinone only.

[2] = system: thermal radiation pain (tail flick); test: thermal radiation (tail flick) test on rats (analgesia); format: in vivo, female Sprague Dawley rats; conditions: Rattus norvegicus, 20 min, read-out: ED50 in the tail flick test
Excerpt: Testing for analgesia using the tail flick test on rats
The analgesic effectiveness of the compounds to be used according to the invention was investigated in the thermal radiation (tail flick) test on rats using the method of D'Amour and Smith (J. Pharm. Exp. Ther. 72, 74-79 (1941). Female Sprague Dawley rats with a weight of 120-160 g were used for this purpose. The animals were placed individually in test cages and the bases of their tails were exposed to the focused thermal radiation from an electric lamp (Rhema Analgesiemeter for rats). The lamp intensity was adjusted so that the time from switching on the lamp until the sudden twitching away of the tail (latency of pain) was 3-6 seconds for untreated animals. Before the administration of the compounds to be used according to the invention, the animals were tested twice within five minutes and the average value of these measurements was calculated as the pre-test average. The pain measurement was made 20, 40 and 60 minutes after intravenous administration. […]. In order to determine the dosage-dependency, the compounds were administered in doses increasing logarithmically by a factor of 3-5, which included the threshold and the maximum effective dose each time. The ED50 values were determined from the number of analgesic animals by the method of Litchfield and Wilcoxon (J. Pharm. Exp. Ther. 96, 99-113, (1949)). The ED50 was calculated at the effective maximum 20 minutes after intravenous administration of the substance.

[3] = analgesic effect (statement in words); format: in vivo; conditions: on its own or in combination with tramadol
[4] = intravenous, phenylquinone i.p. 10 minutes after compound, writhing counted 5-20 minutes after phenylquinone, mice
[5] = intravenous, 20 minutes after administration, >150 % of pre-test average latency, rats

SMILES	ED50 ([1]; iv)	ED50 ([2]; iv)	analgesic effect [3]	ED50 [1, 4]	ED50 [2, 5]
COc1cccc([C@@]2(O)CCCC[C@@H]2CN(C)C)c1.Cl (racemic) [racemic tramadol hydrochloride, (1RS, 2RS)-2-dimethylaminomethyl-1-(3-methoxy-phenyl)-cyclohexanol hydrochloride, reference compound]	3.59 mg/kg	6.47 mg/kg			
CN(C)C[C@H]1CCCC[C@]1(O)c1cccc(O)c1 (relative stereo) [O-demethyltramadol]			high analgesic effect		
CN(C)C[C@H]1CCCC[C@]1(O)c1cccc(O)c1 [(+)-enantiomer of O-demethyltramadol hydrochloride, (+)-(1R, 2R)-3-(2-dimethyl-aminomethyl-1-hydroxy-cyclohexyl)-phenol hydrochloride]				0.489 mg/kg	1.01 mg/kg
CN(C)C[C@@H]1CCCC[C@@]1(O)c1cccc(O)c1 [(-)-enantiomer of O-demethyltramadol hydrochloride, (-)-(1S, 25)-3-(2-dimethylaminomethyl-1-hydroxy-cyclohexyl)-phenol hydrochloride]				6.6 mg/kg	> 10 mg/kg
